ChEMBL document CHEMBL1137579, “Discovery of 1-[2-[(1S)-(3-dimethylaminopropionyl)amino-2-methylpropyl]-4-methylphenyl]-4-[(2R)-methyl-3-(4-chlorophenyl)-propionyl]piperazine as an orally active antagonist of the melanocortin-4 receptor for the potential treatment of cachexia” (J Med Chem, 2007)
Values after ≈ are worked out from the molar mass of the structure shown. Active and inactive are the calls of the source. No cut-off for these calls is given here.

Assays:
[1] = Drug level in rat brain at 10 mg/kg, po after 4 hrs; type: ADME, organism-based; set-up: dose 10 mg/kg, route oral; conditions: read-out: Drug uptake
Mus musculus [2] = assay: Increase in food intake in C57BL/6J mouse at 5 mg/kg on day 10; type: functional, organism-based; set-up: dose 5 mg/kg
[3] = AUC in rhesus monkey at 5 mg/kg, iv; type: ADME, organism-based, Macaca mulatta; set-up: dose 5 mg/kg, route intravenous; conditions: plasma
[4] = AUC in rat at 10 mg/kg, po; type: ADME, organism-based; set-up: dose 10 mg/kg, route oral; conditions: plasma
[5] = Tmax in rhesus monkey at 10 mg/kg, po; type: ADME, organism-based, Macaca mulatta; set-up: dose 10 mg/kg, route oral; conditions: in vivo, read-out: Tm
[6] = AUC in […] rhesus monkey at 10 mg/kg, po; type: ADME, organism-based, Macaca mulatta; set-up: dose 10 mg/kg, route oral; conditions: plasma
[7] = Cmax in CD1 mouse at 10 mg/kg, po; type: ADME, organism-based; set-up: dose 10 mg/kg, route oral; conditions: in vivo
Mus musculus [8] = assay: Increase in food intake in C57BL/6J mouse at 20 mg/kg on day 10; type: functional, organism-based; set-up: dose 20 mg/kg
[9] = Aqueous solubility at pH 7.0; type: physicochemical; conditions: aqueous medium
[10] = Dissociation constant, pKa of the compound; type: physicochemical
[11] = Aqueous solubility at pH 3.0; type: physicochemical; conditions: aqueous medium
[12] = Cmax in CD1 mouse brain at 10 mg/kg, po; type: ADME, organism-based; set-up: dose 10 mg/kg, route oral
[13] = AUC in Sprague-Dawley rat at 10 mg/kg, po; type: ADME, organism-based; set-up: dose 10 mg/kg, route oral; conditions: plasma
[14] = AUC in CD1 Beagle dog at 10 mg/kg, po; type: ADME, organism-based, Canis lupus familiaris; set-up: dose 10 mg/kg, route oral; conditions: plasma
Mus musculus [15] = assay: Increase in food intake in C57BL/6J mouse at 20 mg/kg on day 12; type: functional, organism-based; set-up: dose 20 mg/kg
[16] = Cmax in rat at 5 mg/kg, iv or 10 mg/kg, po; type: ADME, organism-based; conditions: in vivo
[17] = AUC in CD1 mouse at 2.5 mg/kg, iv; type: ADME, organism-based; set-up: dose 2.5 mg/kg, route intravenous; conditions: plasma
[18] = Volume of distribution in rhesus monkey at 5 mg/kg, iv; type: ADME, organism-based, Macaca mulatta; set-up: dose 5 mg/kg, route intravenous; conditions: in vivo
[19] = Tmax in Beagle dog at 10 mg/kg, po; type: ADME, organism-based, Canis lupus familiaris; set-up: dose 10 mg/kg, route oral; conditions: in vivo, read-out: Tm
Caco-2 = assay: Permeability across Caco-2 cell membrane; type: ADME, cell-based; conditions: human
[20] = target: Melanocyte-stimulating hormone receptor (Homo sapiens) (UniProt Q01726); assay: Displacement of [125I]NDP-MSH from human MC1R
Rattus norvegicus = assay: AUC in Sprague-Dawley rat brain at 10 mg/kg, po; type: ADME, organism-based; set-up: dose 10 mg/kg, route oral; conditions: in vivo
[21] = Oral bioavailability in rat at 10 mg/kg, po; type: ADME, organism-based; conditions: in vivo
[22] = Tmax in rat at 5 mg/kg, iv or 10 mg/kg, po; type: ADME, organism-based; conditions: in vivo
[23] = AUC in Beagle dog at 5 mg/kg, iv; type: ADME, organism-based, Canis lupus familiaris; set-up: dose 5 mg/kg, route intravenous; conditions: plasma
[24] = Volume of distribution in CD1 mouse at 2.5 mg/kg, iv; type: ADME, organism-based; set-up: dose 2.5 mg/kg, route intravenous; conditions: in vivo
Mus musculus [25] = assay: Increase in food intake in C57BL/6J mouse at 5 mg/kg on day 11; type: functional, organism-based; set-up: dose 5 mg/kg
[26] = Ratio of drug level in brain to plasma in rat at 5 mg/kg, iv or 10 mg/kg, po after 4 hrs; type: ADME, organism-based
[27] = Tmax in CD1 mouse brain at 10 mg/kg, po; type: ADME, organism-based; set-up: dose 10 mg/kg, route oral
[28] = Oral bioavailability in Beagle dog at 10 mg/kg, po; type: ADME, organism-based, Canis lupus familiaris; conditions: in vivo
[29] = Drug level in rat brain at 10 mg/kg, po after 1 hr; type: ADME, organism-based; set-up: dose 10 mg/kg, route oral; conditions: read-out: Drug uptake
[30] = Tmax in Sprague-Dawley rat brain at 10 mg/kg, po; type: ADME, organism-based; set-up: dose 10 mg/kg, route oral
[31] = Oral bioavailability in rhesus monkey at 10 mg/kg, po; type: ADME, organism-based, Macaca mulatta; conditions: in vivo
Mus musculus [32] = assay: Increase in food intake in C57BL/6J mouse at 5 mg/kg on day 12; type: functional, organism-based; set-up: dose 5 mg/kg
[33] = Ratio of drug level in brain to plasma in CD1 mouse at 10 mg/kg, po; type: ADME, organism-based; set-up: dose 10 mg/kg, route oral
[34] = AUC in CD1 mouse at 10 mg/kg, po; type: ADME, organism-based; set-up: dose 10 mg/kg, route oral; conditions: plasma
[35] = Volume of distribution in rat at 5 mg/kg, iv or 10 mg/kg, po; type: ADME, organism-based; conditions: in vivo
[36] = Oral bioavailability in CD1 mouse at 10 mg/kg, po; type: ADME, organism-based; conditions: in vivo
[37] = Ratio of drug level in brain to plasma in rat at 5 mg/kg, iv or 10 mg/kg, po after 1 hr; type: ADME, organism-based
Mus musculus [38] = assay: AUC in CD1 mouse brain at 10 mg/kg, po; type: ADME, organism-based; set-up: dose 10 mg/kg, route oral; conditions: in vivo
[39] = Cmax in Sprague-Dawley rat brain at 10 mg/kg, po; type: ADME, organism-based; set-up: dose 10 mg/kg, route oral
[40] = Tmax in Sprague-Dawley rat at 10 mg/kg, po; type: ADME, organism-based; set-up: dose 10 mg/kg, route oral; conditions: in vivo, read-out: Tm
[41] = Cmax in Sprague-Dawley rat at 10 mg/kg, po; type: ADME, organism-based; set-up: dose 10 mg/kg, route oral; conditions: in vivo
[42] = Tmax in CD1 mouse at 10 mg/kg, po; type: ADME, organism-based; set-up: dose 10 mg/kg, route oral; conditions: in vivo, read-out: Tm
[43] = Cmax in Beagle dog at 10 mg/kg, po; type: ADME, organism-based, Canis lupus familiaris; set-up: dose 10 mg/kg, route oral; conditions: in vivo
[44] = Cmax in rhesus monkey at 10 mg/kg, po; type: ADME, organism-based, Macaca mulatta; set-up: dose 10 mg/kg, route oral; conditions: in vivo
[45] = Volume of distribution in Beagle dog at 5 mg/kg, iv; type: ADME, organism-based, Canis lupus familiaris; set-up: dose 5 mg/kg, route intravenous; conditions: in vivo
Mus musculus [46] = assay: Increase in food intake in C57BL/6J mouse at 20 mg/kg on day 11; type: functional, organism-based; set-up: dose 20 mg/kg
[47] = Cmax in rat at 2.5 mg/kg, iv or 10 mg/kg, po; type: ADME, organism-based; conditions: in vivo
[48] = Tmax in rat at 2.5 mg/kg, iv or 10 mg/kg, po; type: ADME, organism-based; conditions: in vivo
[49] = Volume of distribution in rat at 2.5 mg/kg, iv or 10 mg/kg, po; type: ADME, organism-based; conditions: in vivo
[50] = target: Melanocortin receptor 4 (Homo sapiens) (UniProt P32245); assay: Activity at MC4R expressed in HEK293 cells assessed as stimulation of cAMP release at 10 uM relative to alpha-MSH; type: functional, cell-based
[51] = Half life in rat at 2.5 mg/kg, iv or 10 mg/kg, po; type: ADME, organism-based; conditions: in vivo
[52] = Plasma clearance in rat at 5 mg/kg, iv

Sequence of Melanocyte-stimulating hormone receptor (Homo sapiens) (Q01726 whole entry, looked up): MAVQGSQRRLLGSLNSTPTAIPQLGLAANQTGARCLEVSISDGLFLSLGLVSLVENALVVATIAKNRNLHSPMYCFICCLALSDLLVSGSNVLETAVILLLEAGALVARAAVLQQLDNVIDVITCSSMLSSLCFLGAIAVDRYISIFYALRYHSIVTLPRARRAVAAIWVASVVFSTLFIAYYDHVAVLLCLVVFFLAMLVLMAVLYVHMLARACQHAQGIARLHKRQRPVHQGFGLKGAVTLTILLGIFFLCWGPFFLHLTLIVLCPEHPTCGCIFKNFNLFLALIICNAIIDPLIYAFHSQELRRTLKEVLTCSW
Sequence of Melanocortin receptor 4 (Homo sapiens) (P32245 whole entry): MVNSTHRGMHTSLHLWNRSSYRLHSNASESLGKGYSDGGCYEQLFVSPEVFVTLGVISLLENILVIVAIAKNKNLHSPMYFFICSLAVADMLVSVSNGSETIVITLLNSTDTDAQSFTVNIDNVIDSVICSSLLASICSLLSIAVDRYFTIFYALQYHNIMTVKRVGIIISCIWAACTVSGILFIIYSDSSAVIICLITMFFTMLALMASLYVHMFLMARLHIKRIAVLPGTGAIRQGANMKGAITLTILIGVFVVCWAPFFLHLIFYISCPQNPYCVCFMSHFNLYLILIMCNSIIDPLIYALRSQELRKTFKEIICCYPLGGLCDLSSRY

Cc1ccc(N2CCN(C(=O)[C@H](C)Cc3ccc(Cl)cc3)CC2)c([C@@H](NC(=O)CCN(C)C)C(C)C)c1
concentration at 4 h [1]: 33 ng/g | Activity (Mus musculus [2]): Active | AUC [3]: 10300 ng·h/mL | AUC [4]: 1400 ng·h/mL | Tmax [5]: 1.8 h | AUC [6]: 3860 ng·h/mL | Cmax [7]: 946 ng/mL | Activity (Mus musculus [8]): Active | solubility [9]: 33 mg/mL (≈ 62.6 mM) | pKa [10]: 7.8 | solubility [11]: > 71 mg/mL | Cmax [12]: 91 ng/g | AUC [13]: 1520 ng·h/mL | AUC [14]: 2860 ng·h/mL | Activity (Mus musculus [15]): Active | Cmax [16]: 110 ng/mL | AUC [17]: 1410 ng·h/mL | Vd [18]: 2 L/kg | Tmax [19]: 1.7 h | permeability (Caco-2): 6.2 10^-6 cm/s | Activity [20]: 50% | AUC (Rattus norvegicus): 254 ng·h/g | bioavailability [21]: 43% | Tmax [22]: 4.7 h | AUC [23]: 8200 ng·h/mL | Vd [24]: 4.1 L/kg | Activity (Mus musculus [25]): Active | Kp at 4 h [26]: 0.4 | Tmax [27]: 0.3 h | bioavailability [28]: 19% | concentration at 1 h [29]: 20 ng/g | Tmax [30]: 6 h | bioavailability [31]: 19% | Activity (Mus musculus [32]): Active | Kp [33]: 0.15 | AUC [34]: 2530 ng·h/mL | Vd [35]: 13 L/kg | bioavailability [36]: 32% | Kp at 1 h [37]: 0.2 | AUC (Mus musculus [38]): 367 ng·h/g | Cmax [39]: 41 ng/g | Tmax [40]: 2.7 h | Cmax [41]: 279 ng/mL | Tmax [42]: 0.5 h | Cmax [43]: 262 ng/mL | Cmax [44]: 761 ng/mL | Vd [45]: 5.9 L/kg | Activity (Mus musculus [46]): Active

CNCCC(=O)N[C@H](c1cc(C)ccc1N1CCN(C(=O)[C@H](C)Cc2ccc(Cl)cc2)CC1)C(C)C
concentration at 4 h [1]: < 5 ng/g | AUC [4]: 563 ng·h/mL | permeability (Caco-2): 1.2 10^-6 cm/s | Activity [20]: 43% | bioavailability [21]: 15% | Cmax [47]: 57 ng/mL | Tmax [48]: 3.3 h | concentration at 1 h [29]: < 5 ng/g | Vd [49]: 20 L/kg

CNCCN[C@H](c1cc(C)ccc1N1CCN(C(=O)[C@H](C)Cc2ccc(Cl)cc2F)CC1)C(C)C
concentration at 4 h [1]: < 5 ng/g | AUC [4]: 299 ng·h/mL | Activity [50]: 7% | half-life [51]: 17 h | permeability (Caco-2): 0.3 10^-6 cm/s | clearance [52]: 60 mL/min/kg | bioavailability [21]: 13% | Cmax [47]: 22 ng/mL | Tmax [48]: 6 h | concentration at 1 h [29]: < 5 ng/g | Vd [49]: 95 L/kg

Cc1ccc(N2CCN(C(=O)[C@H](C)Cc3ccc(Cl)cc3)CC2)c([C@@H](NC(=O)CCN)C(C)C)c1
permeability (Caco-2): 0.3 10^-6 cm/s | Activity [20]: 42%

Cc1ccc(N2CCN(C(=O)[C@H](C)Cc3ccc(Cl)cc3C)CC2)c([C@@H](N)C(C)C)c1
Activity [50]: 2%
